Results: PMC6002953 (ACS chemical neuroscience, 2017)
Read-outs that look alike come from different tables or passages of the source.

Key:
human OX2 receptor = biological target: T1, human OX2 receptor (Homo sapiens, UniProt O43614); test: Calcium mobilization Ke assay, OX2; type: cell-based; details: for inhibition at 10 µM: read-out: Ke (OX2, nM) column: inhibition at 10 μM final concentration
T1 sequence (O43614 1-444): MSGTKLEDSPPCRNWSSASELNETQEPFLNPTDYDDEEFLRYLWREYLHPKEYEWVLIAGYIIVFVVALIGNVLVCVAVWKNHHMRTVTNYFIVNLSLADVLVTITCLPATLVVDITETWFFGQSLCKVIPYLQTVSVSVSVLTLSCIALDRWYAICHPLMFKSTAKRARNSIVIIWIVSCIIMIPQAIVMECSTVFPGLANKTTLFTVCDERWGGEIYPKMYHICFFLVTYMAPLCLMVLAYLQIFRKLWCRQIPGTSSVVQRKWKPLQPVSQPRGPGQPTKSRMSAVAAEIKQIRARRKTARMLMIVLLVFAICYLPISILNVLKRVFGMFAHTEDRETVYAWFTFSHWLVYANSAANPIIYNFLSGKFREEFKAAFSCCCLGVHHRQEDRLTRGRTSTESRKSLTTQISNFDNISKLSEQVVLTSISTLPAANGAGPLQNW

human OX1 receptor = biological target: T2, human OX1 receptor (Homo sapiens, UniProt O43613); test: Calcium mobilization Ke assay, OX1; type: cell-based; details: for OX2/OX1: ratio of Ke values OX2/OX1
T2 sequence (O43613 1-425): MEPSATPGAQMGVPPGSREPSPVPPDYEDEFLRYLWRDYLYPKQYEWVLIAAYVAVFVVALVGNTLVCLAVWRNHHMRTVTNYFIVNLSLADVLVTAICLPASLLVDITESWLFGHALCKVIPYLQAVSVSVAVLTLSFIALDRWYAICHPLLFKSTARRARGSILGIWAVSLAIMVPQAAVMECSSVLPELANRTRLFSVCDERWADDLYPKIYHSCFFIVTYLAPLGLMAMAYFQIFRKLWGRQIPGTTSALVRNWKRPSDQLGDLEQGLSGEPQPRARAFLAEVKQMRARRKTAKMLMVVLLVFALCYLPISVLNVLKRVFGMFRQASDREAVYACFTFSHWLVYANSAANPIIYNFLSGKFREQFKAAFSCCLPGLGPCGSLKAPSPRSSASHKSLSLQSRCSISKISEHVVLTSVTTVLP

OX1 = details: cited from earlier work
[1] = Ke (OX1, nM), compound appeared insurmountable during standard assay procedure, incubation increased to 1 hour

| SMILES | inhibition at 10 µM (human OX2 receptor) [%] | Kd (human OX1 receptor) [nM] | OX2/OX1 (human OX1 receptor) | Kd (human OX2 receptor) [nM] | also measured |
| --- | --- | --- | --- | --- | --- |
| CCCOc1cc2c(cc1OC)CCN(CC(=O)NCc1ccccc1)C2Cc1ccc2ccccc2c1 (centres unmarked) [Compound 12a, N-Benzyl-2-[6-methoxy-1-(naphthalen-2-ylmethyl)-7-propoxy-1,2,3,4-tetrahydroisoquinolin-2-yl]acetamide] | < 50 | 121 ± 35 | >82.6 |  |  |
| CCCOc1cc2c(cc1OC)CCN(CC(=O)NCc1ccccc1)C2Cc1ccc(C)c(C)c1 (centres unmarked) [Compound 12b, N-Benzyl-2-{1-[(3,4-dimethylphenyl)methyl]-6-methoxy-7-propoxy-1,2,3,4-tetrahydroisoquinolin-2-yl}acetamide] | < 50 | 28.8 ± 4.4 | >347 |  |  |
| CCCOc1cc2c(cc1OC)CCN(CC(=O)NCc1ccccc1)C2Cc1ccc(C(C)C)cc1 (centres unmarked) [Compound 12c, N-Benzyl-2-(6-methoxy-1-{[4-(propan-2-yl)phenyl]methyl}-7-propoxy-1,2,3,4-tetrahydroisoquinolin-2-yl)acetamide] | < 50 | 141 ± 42 | >70.9 |  |  |
| CCCOc1cc2c(cc1OC)CCN(CC(=O)NCc1ccccc1)C2Cc1ccc(N(C)C)cc1 (centres unmarked) [Compound 12d, N-Benzyl-2-(1-{[4-(dimethylamino)phenyl]methyl}-6-methoxy-7-propoxy-1,2,3,4-tetrahydroisoquinolin-2-yl)acetamide] |  | 173 ± 5 | >58 | > 10000 |  |
| CCCOc1cc2c(cc1OC)CCN(CC(=O)NCc1ccccc1)C2Cc1cccc(N(C)C)c1 (centres unmarked) [Compound 12f, N-Benzyl-2-(1-{[3-(dimethylamino)phenyl]methyl}-6-methoxy-7-propoxy-1,2,3,4-tetrahydroisoquinolin-2-yl)acetamide] | < 50 | 20.6 ± 2.8 | >485 |  |  |
| CCCOc1cc2c(cc1OC)CCN(CC(=O)NCc1ccccc1)C2Cc1ccc(OCc2ccccn2)c(OC)c1 (centres unmarked) [Compound 12g, N-Benzyl-2-(6-methoxy-1-{[3-methoxy-4-(pyridin-2-ylmethoxy)phenyl]methyl}-7-propoxy-1,2,3,4-tetrahydroisoquinolin-2-yl)acetamide] |  | 96.4 ± 34 | >104 | > 10000 | selectivity over OX2 (human OX1 receptor; OX1 over OX2, calcium mobilization assays): > 100 fold |
| COc1cc2c(cc1OCC(F)(F)F)C(Cc1ccc3ccccc3c1)N(CC(=O)NCc1cccnc1)CC2 (centres unmarked) [Compound 15a, 2-[6-Methoxy-1-(naphthalen-2-ylmethyl)-7-(2,2,2-trifluoroethoxy)-1,2,3,4-tetrahydroisoquinolin-2-yl]-N-(pyridin-3-ylmethyl)acetamide] |  | 29.5 ± 2.2 | 59 | 1750 ± 230 |  |
| COc1cc2c(cc1OCC(F)(F)F)C(Cc1ccc(C)c(C)c1)N(CC(=O)NCc1cccnc1)CC2 (centres unmarked) [Compound 15b, 2-{1-[(3,4-Dimethylphenyl)methyl]-6-methoxy-7-(2,2,2-trifluoroethoxy)-1,2,3,4-tetrahydroisoquinolin-2-yl}-N-(pyridin-3-ylmethyl)acetamide] |  | 20.4 ± 2.9 | 67 | 1360 ± 150 |  |
| COc1cc2c(cc1OCC(F)(F)F)C(Cc1ccccn1)N(CC(=O)NCc1ccccc1)CC2 (centres unmarked) [Compound 19a, N-Benzyl-2-[6-methoxy-1-(pyridin-2-ylmethyl)-7-(2,2,2-trifluoroethoxy)-1,2,3,4-tetrahydroisoquinolin-2-yl]acetamide] | < 50 |  | >11 |  | Kd (human OX1 receptor; [1]): 884 ± 70 nM |
| COc1cc2c(cc1OCC(F)(F)F)C(Cc1cccnc1)N(CC(=O)NCc1ccccc1)CC2 (centres unmarked) [Compound 19b, N-Benzyl-2-[6-methoxy-1-(pyridin-3-ylmethyl)-7-(2,2,2-trifluoroethoxy)-1,2,3,4-tetrahydroisoquinolin-2-yl]acetamide] | < 50 |  |  |  | Kd (human OX1 receptor; [1]): > 10000 nM |
| COc1cc2c(cc1OCC(F)(F)F)C(Cc1ccncc1)N(CC(=O)NCc1ccccc1)CC2 (centres unmarked) [Compound 19c, N-Benzyl-2-[6-methoxy-1-(pyridin-4-ylmethyl)-7-(2,2,2-trifluoroethoxy)-1,2,3,4-tetrahydroisoquinolin-2-yl]acetamide] | < 50 |  | >5.4 |  | Kd (human OX1 receptor; [1]): 1860 nM |
| COc1cc(CC2c3cc(OS(C)(=O)=O)c(OC)cc3CCN2CC(=O)NCc2ccccc2)ccc1OCc1ccccc1 (centres unmarked) [Compound 25a, 2-[(Benzylcarbamoyl)methyl]-1-{[4-(benzyloxy)-3-methoxyphenyl]methyl}-6-methoxy-1,2,3,4-tetrahydroisoquinolin-7-yl methanesulfonate] | < 50 | 43 ± 18 | >232 |  |  |
| CCCCOc1ccc(CC2c3cc(OS(C)(=O)=O)c(OC)cc3CCN2CC(=O)NCc2ccccc2)cc1OC (centres unmarked) [Compound 25b, 2-[(Benzylcarbamoyl)methyl]-1-[(4-butoxy-3-methoxyphenyl)methyl]-6-methoxy-1,2,3,4-tetrahydroisoquinolin-7-yl methanesulfonate] |  | 5.24 ± 1 | 229 | 1200 |  |
| COc1cc2c(cc1N)C(Cc1ccc(OC)c(OC)c1)N(CC(=O)NCc1ccccc1)CC2 (centres unmarked) [Compound 33, 2-{7-Amino-1-[(3,4-dimethoxyphenyl)methyl]-6-methoxy-1,2,3,4-tetrahydroisoquinolin-2-yl}-N-benzylacetamide] |  | 494 ± 32 | >20 | > 10000 |  |
| COc1ccc(CC2c3cc(N(C)C)c(OC)cc3CCN2CC(=O)NCc2ccccc2)cc1OC (centres unmarked) [Compound 34a, N-Benzyl-2-{1-[(3,4-dimethoxyphenyl)methyl]-7-(dimethylamino)-6-methoxy-1,2,3,4-tetrahydroisoquinolin-2-yl}acetamide] |  | 31.2 ± 3.3 | >321 | > 10000 |  |
| COc1cc2c(cc1NCc1ccccc1)C(Cc1ccc(OC)c(OC)c1)N(CC(=O)NCc1ccccc1)CC2 (centres unmarked) [Compound 34b, N-Benzyl-2-[7-(benzylamino)-1-[(3,4-dimethoxyphenyl)methyl]-6-methoxy-1,2,3,4-tetrahydroisoquinolin-2-yl]acetamide] | < 35 | 352 ± 34 | >28 |  |  |
| COc1cc2c(cc1NC(C)=O)C(Cc1ccc(OC)c(OC)c1)N(CC(=O)NCc1ccccc1)CC2 (centres unmarked) [Compound 34c, N-Benzyl-2-{1-[(3,4-dimethoxyphenyl)methyl]-7-acetamido-6-methoxy-1,2,3,4-tetrahydroisoquinolin-2-yl}acetamide] |  | 116 ± 44 | >86 | > 10000 |  |
| COc1cc2c(cc1NS(C)(=O)=O)C(Cc1ccc(OC)c(OC)c1)N(CC(=O)NCc1ccccc1)CC2 (centres unmarked) [Compound 34d, N-Benzyl-2-{1-[(3,4-dimethoxyphenyl)methyl]-7-methanesulfonamido-6-methoxy-1,2,3,4-tetrahydroisoquinolin-2-yl}acetamide] |  | 128 ± 13 | >78 | > 10000 |  |
| CCCC(=O)Nc1cc2c(cc1OC)CCN(CC(=O)NCc1ccccc1)C2Cc1ccc(OC)c(OC)c1 (centres unmarked) [Compound 34e, N-{2-[(Benzylcarbamoyl)methyl]-1-[(3,4-dimethoxyphenyl)methyl]-6-methoxy-1,2,3,4-tetrahydroisoquinolin-7-yl}butanamide] |  | 689 ± 73 | >14.5 | > 10000 |  |
| COC(=O)Nc1cc(CC2c3cc(NC(=O)OC)c(OC)cc3CCN2CC(=O)NCc2ccccc2)ccc1OC (centres unmarked) [Compound 38, Methyl N-{2-[(Benzylcarbamoyl)methyl]-6-methoxy-1-({4-methoxy-3-[(methoxycarbonyl)amino]phenyl}methyl)-1,2,3,4-tetrahydroisoquinolin-7-yl}carbamate] |  | > 10000 |  | 592 ± 170 |  |
| COc1ccc(CC2c3cc(N(C)C)c(OC)cc3CCN2CC(=O)NCc2ccccc2)cc1N(C)C (centres unmarked) [Compound 39, N-Benzyl-2-[7-(dimethylamino)-1-{[3-(dimethylamino)-4-methoxyphenyl]methyl}-6-methoxy-1,2,3,4-tetrahydroisoquinolin-2-yl]acetamide] |  | 7.6 ± 2.8 | 113 | 857 ± 220 |  |
| COc1cc2c(cc1N(C)C)C(Cc1cccc(N(C)C)c1)N(CC(=O)NCc1ccccc1)CC2 (centres unmarked) [Compound 42, N-Benzyl-2-[7-(dimethylamino)-1-{[3-(dimethylamino)phenyl]methyl}-6-methoxy-1,2,3,4-tetrahydroisoquinolin-2-yl]acetamide] |  | 148 ± 36 | 9.1 | 1360 |  |
| Cc1nc2ccc(NC(=O)Nc3ccnc4cccnc34)cc2o1 [SB334867] |  |  |  |  | selectivity over OX2 (OX1): 50 ×; selectivity over OX2 (OX1; listed as 3): ~ 50 ×; IC50 (OX1; read-out: IC50 (OX1), commonly used OX1 antagonist): 40 nM |
